From patent US10377741B2, “Substituted heteroaryl aldehyde compounds and methods for their use in increasing tissue oxygenation” (Global Blood Therapeutics, Inc., priority 2011, dated 2019)

Molecular target: T1, purified Hemoglobin S (HbS) (Homo sapiens, UniProt P68871+P69905, E7V)
T1 construct: HbS was purified by a modified procedure; from tissue; host or cells: blood of homozygous sickle cell patients (CHORI); for the polymerization assay purified by the CRO VIRUSYS
Assay: Modulation of hemoglobin oxygen affinity: oxygen equilibrium curves (HEMOX) in purified HbS
Format: biochemical, human (homozygous sickle cell patients)
Conditions: compound at 30 μM; 25 μM purified HbS, 45 min at 37° C.
Method: Oxygen equilibrium curves (OEC) in purified Hemoglobin S (HbS) were measured by the change in p50, the partial pressure of oxygen at which the heme binding sites in the HbS sample are 50% saturated with oxygen. HbS was purified by a modified procedure (Antonini and Brunori, 1971; Heomoglobin and Myoglobin in their Reactions with Ligands; North Holland Publishing Company; Amsterdam, London) from blood obtained from homozygous sickle cell patients though the Hemoglobinopathy Center at Children's Hospital Oakland Research Institute (CHORI) with Institutional Review Board approval. Oxygen equilibrium curves were carried out with a HEMOX analyzer, (TCS Scientific, New Hope, Pa.). Five hundred μL of 250 μM purified HbS were diluted into 4.5 mL of HEMOX buffer (30 mM TES, 130 mM NaCl, 5 mM KCl, pH=7.4) resulting in a final hemoglobin concentration of 25 μM. The compounds were added at the final desired concentrations. The mixture was incubated for 45 min at 37° C. and then transferred to the Hemox sample chamber. The samples were saturated with oxygen by flushing with compressed air for 10 minutes. The samples were then flushed with pure nitrogen and the absorbance of deoxy-Hb was recorded as a function of the solution pO2. The oxygen equilibrium data was then fit to the Hill Model to obtain values for p50. The deoxygenation curves for both HbS alone (control) and HbS in the presence of compound were collected with the TCS software. The p50 for purified Hbs was typically 13.8±1.6. Delta p50 values were obtained from the p50 value for control minus the p50 value for HbS treated with compound divided by the p50 value for the control.
The compounds of Table 1 that were where tested in the assay above were all found to have positive delta p50 values. Delta p50% is calculated from [[p50(HbS) −p50(HbS treated with compound)]/p50(HbS)]×100. Table 2 below lists the delta p50% values where + indicates a delta p50% of between 0 and 29, ++ indicates a delta p50% of between 30 and 50, and +++ indicates a delta p50% of 50 or greater. Unless noted otherwise, the compounds in Table 2 were tested at 30 μM.

SMILES	delta p50%
COc1cc(C=O)c(OCc2ccc(C)nc2)cn1 [Compound 41, 2-methoxy-5-((6-methylpyridin-3-yl)methoxy)isonicotinaldehyde]	+ (a delta p50% of between 0 and 29)
COc1cc(C=O)c(OCc2cnccc2-c2cn[nH]c2)cn1 [Compound 95, 5-((4-(1H-pyrazol-4-yl)pyridin-3-yl)methoxy)-2-methoxyisonicotinaldehyde]	+ (a delta p50% of between 0 and 29)
O=Cc1cccnc1OCc1cccn2ccnc12 [Compound 3, 2-(imidazo[1,2-a]pyridin-8-ylmethoxy)nicotinaldehyde]	+ (a delta p50% of between 0 and 29)
O=Cc1ccncc1OCc1cccn2cncc12 [Compound 7, 3-(imidazo[1,5-a]pyridin-8-ylmethoxy)isonicotinaldehyde]	+ (a delta p50% of between 0 and 29)
COC(=O)c1cncc(COc2cnc(OC)cc2C=O)c1 [Compound 78, methyl 5-((4-formyl-6-methoxypyridin-3-yloxy)methyl)nicotinate]	+ (a delta p50% of between 0 and 29)
COc1cc(C=O)c(OCc2cc(-c3cn[nH]c3)cn3ccnc23)cn1 [Compound 102, 5-((6-(1H-pyrazol-4-yl)imidazo[1,2-a]pyridin-8-yl)methoxy)-2-methoxyisonicotinaldehyde]	+ (a delta p50% of between 0 and 29)
COc1cc(C(O)OC)c(OCc2cccc3nccn23)cn1 (stereo not drawn) [Compound 50, (5-(imidazo[1,2-a]pyridin-5-ylmethoxy)-2-methoxypyridin-4-yl)(methoxy)methanol]	+ (a delta p50% of between 0 and 29)
O=Cc1ncccc1OCc1cccn2ccnc12 [Compound 4, 3-(imidazo[1,2-a]pyridin-8-ylmethoxy)picolinaldehyde]	+ (a delta p50% of between 0 and 29)
COc1cc(C=O)c(OCc2cccnc2)cn1 [Compound 42, 2-methoxy-5-(pyridin-3-ylmethoxy)isonicotinaldehyde]	+ (a delta p50% of between 0 and 29)
COc1cc(C=O)c(OCc2cnccc2C)cn1 [Compound 39, 2-methoxy-5-((4-methylpyridin-3-yl)methoxy)isonicotinaldehyde]	+ (a delta p50% of between 0 and 29)

More lines, now with the values ahead:

delta p50%	SMILES
+ (a delta p50% of between 0 and 29)	Cc1ccc(OCc2cnc3c(cnn3C)c2)c(C=O)n1 [Compound 121, 6-methyl-3-((1-methyl-1H-pyrazolo[3,4-b]pyridin-5-yl)methoxy)picolinaldehyde]
+ (a delta p50% of between 0 and 29)	COc1cc(C=O)c(OCc2cccnc2-c2c(C)cnn2C)cn1 [Compound 142, 5-((2-(1,4-dimethyl-1H-pyrazol-5-yl)pyridin-3-yl)methoxy)-2-methoxyisonicotinaldehyde]
+ (a delta p50% of between 0 and 29)	COc1cc(C=O)c(OCc2ccc3c(cnn3C)c2)cn1 [Compound 110, 2-methoxy-5-((1-methyl-1H-indazol-5-yl)methoxy)isonicotinaldehyde]
+ (a delta p50% of between 0 and 29)	COc1cc(C=O)c(OCc2ccnc3cccnc23)cn1 [Compound 105, 5-((1,5-naphthyridin-4-yl)methoxy)-2-methoxyisonicotinaldehyde]
+ (a delta p50% of between 0 and 29)	Cc1ccc(OCc2ccnc3c2c(C)nn3C)c(C=O)n1 [Compound 113, 3-((1,3-dimethyl-1H-pyrazolo[3,4-b]pyridin-4-yl)methoxy)-6-methylpicolinaldehyde]
+ (a delta p50% of between 0 and 29)	COc1cc(C=O)c(OCc2cccnc2-c2cn[nH]c2)cn1 [Compound 128, 5-((2-(1H-pyrazol-4-yl)pyridin-3-yl)methoxy)-2-methoxyisonicotinaldehyde]
+ (a delta p50% of between 0 and 29)	COc1cc(C=O)c(OCc2ccc3c(c2)c(Cl)nn3C)cn1 [Compound 111]

Same assay, conditions: compound at 100 μM; 25 μM purified HbS, 45 min at 37° C.

delta p50%	SMILES
++ (a delta p50% of between 30 and 50)	COc1cc(C=O)c(OCc2cn3cccc(Br)c3n2)cn1 [Compound 57, 5-((8-bromoimidazo[1,2-a]pyridin-2-yl)methoxy)-2-methoxyisonicotinaldehyde]
